Assay [1] has as its system NCI-H460 (FAS positive). The assay is described as follows: WST-1 proliferation assay, NCI-H460. It is filed as cell-based, human. Conditions: single agent, per experiment line. As for the experimental part: (§1) 2000 cells were plated in each well of 96-well flat bottom plates, and incubated overnight at 37 °C in 5% CO2. The growth of plated cells was measured by adding […] of WST-1 reagent (Roche Applied Sciences, Germany) to 3 control wells and measuring the absorbance at 650 nm and at 450 nm, respectively, with a SpectraMax250 plate reader. […] After this incubation, VVST-1 reagent was added to the wells and OD650-OD450 values were calculated as before. six wells were assayed for each conditions and standard deviation was determined: all experiments were performed at least three times independently. […] DDP and GMZ were both purchased from Sigma-aldrich Corp., St. Louis, Mo., USA. The following cell lines were used: A549 (FAS negative), NCI-H460 (FAS positive), and HCC827 (FAS positive), all obtained from the ATTC, Rockville, Md., USA.
A general note: Formazan colour is commonly taken as a measure of viable cells.

The subject of assay [2] is LN-229. Nature of the assay: WST-1 proliferation assay, LN-229. Type of assay: cell-based. Conditions: Homo sapiens. As for the experimental part: 2000 cells were plated in each well of 96-well flat bottom plates, and incubated overnight at 37 °C in 5% CO2. The growth of plated cells was measured by adding […] of WST-1 reagent (Roche Applied Sciences, Germany) to 3 control wells and measuring the absorbance at 650 nm and at 450 nm, respectively, with a SpectraMax250 plate reader. If the OD650-OD450 values were above 0.5, the remainder of the plate was used for incubation with AP-121, other pharmacological agents or solvent control for 96 hours.
After this incubation, VVST-1 reagent was added to the wells and OD650-OD450 values were calculated as before. six wells were assayed for each conditions and standard deviation was determined: all experiments were performed at least three times independently. After elucidation of individual IC50 values for each compound, the simultaneous combination treatment of AP-121 and the chemotherapeutic agent at their IC50 ratio was performed; combination index (CI) was determined by Calcusyn software package (Biosoft, Ferguson, Mo.). Data were evaluated by calculating the means of the combination index (CI), where a CI of <0.3 indicates a strong synergistic effect, 0.3<CI<0.7 a synergistic effect, 0.7<CI<0.9 moderate synergy, 0.9<CI<1 additive effect and CI>1 antagonistic effect, respectively.
For the AP-121 cell proliferation drug combination measurements, the ED50 was determined for each drug. Six different concentrations of each drug were used in combinations index measurements and compared to +/− cells, and compared to controls without compound. Each combination was repeated 6 times at 2 different time points (24 and 96 hours), each of the above experiments was repeated 3 times to obtain valid results.

Assay [3] deals with androgen-insensitive LNCaP-Res cells. Nature of the assay: apoptosis in LNCaP-Res cells. It is filed as cell-based, human. Conditions: data not shown.
In assay [4] the test system is HCC827 (FAS positive). The assay is described as follows: WST-1 proliferation assay, HCC827. Type of assay: cell-based, human. Conditions: single agent, per experiment line. The method, then:
as §1

The subject of assay [5] is LNCaP cells grown orthotopically in the prostates of nude mice. The assay is described as follows: LNCaP cells grown orthotopically in the prostates of nude mice (PSA, tumor volume). It is filed as in vivo. Conditions: 0-30 mg/kg intraperitoneal injections and concomitant irradiation; dose-dependent effect. As for the experimental part:
FIG. 2. Depicts the in vivo effects of 1-O-octadecyl-2-O-methyl-glycero-3-phosphocholine (30 mg/kg body weight/day administered intraperitoneally for 15 days; FIG. 2A), (ionizing) radiation (absorbed dose of 5 Gray units administered on day 7); FIG. 2C), and a combination thereof (FIG. 2B) on LNCaP cells grown orthotopically in the prostates of nude mice (seven mice/group). Tumor growth was assessed via determining the serum level of the prostate-specific antigen (PSA) using a commercially available test kit as well as the tumor volume by means of magnetic resonance imaging. Graphed lines show tumor size in individual mice.
It is known that prostate cancer cell lines express FAS receptor, that some of them are not sensitive to FAS (O. W. Rokhlin et al., Cancer Res. 1997, 57: 1758-68). […]
1-O-octadecyl-2-O-methyl-glycero-3-phosphocholine was administered intraperitoneally in a dose of 30 mg/kg body weight/day administered intraperitoneally for 15 days (FIG. 2A; studies using different routes of administration such as orally or by gavage are currently under way). […] Tumor growth was assessed via determining the serum level of the prostate-specific antigen (PSA) using a commercially available test kit as well as the tumor volume by means of magnetic resonance imaging.

The subject of assay [6] is HeLa. Conditions: mean ± SD from three independent experiments, read-out: ED50 values for induction of apoptosis; cited from earlier work.

Where “and” joins values, the source holds several entries; their conditions need not be identical. Identical values can stand only once.

`CCCCCCCCCCCCCCCCCCOCC(COP(=O)([O-])OCC[N+](C)(C)C)OC` (racemic) [AP-121, 1-O-octadecyl-2-O-methyl-glycero-3-phosphocholine]: the IC50 is 1.5 µM in assay [1] (Homo sapiens, NCI-H460, NCI-H460); 1.4 µM and 2 µM in assay [1] (NCI-H460); 4.3 µM in assay [2]; 2.4 µM and 0.85 µM and 1.6 µM in assay [4]. For the same compound, the “apoptosis in CHEM+RT treated cells” value in assay [3] is “enhancement of apoptosis”. For the same compound, in assay [5], the “PSA (prostate specific antigen) levels” value is given as “reduced after few days of treatment”. In addition, in assay [5], the tumor size result was “shrinkage of the tumor size after one week of treatment”. Also, the EC50 in assay [6] is 5.17 ± 1.6 µM.

For orientation: IC50 means the midpoint of a concentration-inhibition curve.
